Where two headings read alike, the source gives them in different places.
Experiments:
[1] = tested on: aspirin-induced gastric bleeding; test: Prevention of aspirin-induced gastric bleeding in pyloric-ligated rats, i.p. test compound (Examples 1-22); format: in vivo, Female Sprague-Dawley rats; details: for Gastric Bleeding Index: score 0 to 40
Description: The prevention of aspirin-induced bleeding in rats was determined by the following procedure. Female Sprague-Dawley rats weighing 150-180 g. were fasted for 24 hours on wire and divided into groups of six animals each. The rats were anesthetized and a ligature placed at the pyloric-duodenal junction. Groups serving as controls received normal saline (4.0 ml/kg, i.p.). […] Some of the compounds were tested at 50 mg/kg, i.p. The rats were sacrificed 60 min. after aspirin administration by cervical dislocation. The volume of the gastric contents was determined and compared against that produced with the same amount of aspirin for change in volume. […] (Gradation between 0 to 40 is on an even scale).

[2] = tested on: aspirin-induced gastric bleeding; test: Aspirin-induced gastric bleeding in Cr51 labeled Heidenhain pouch dogs, oral; format: in vivo; details: dog
Description: Methocarbamol (Compound 3) and Metaxalone (Compound 15) were evaluated for their effectiveness upon oral administration against aspirin-induced gastric bleeding in dogs. Three female chronic Heindehain pouch dogs were used. Red blood cells from each dog were labeled with Cr^51. The dogs were fasted 24 hours prior to any study and three days elapsed between studies. On experimental days each fundic pouch was rinsed with tepid tap water and then filled with 10 ml. of normal saline. After 30 minutes the saline was replaced with 10 ml. of artificial gastric juice (USP, pH 1.3). The dogs were given Compound 3 (200 mg/kg) or Compound 15 (50 and 100 mg/kg) or placebo (starch) orally in gelatin capsules. The 10 ml. of gastric juice was removed from the pouch after 60 minutes and replaced with another 10 ml. of juice containing 100 mg. of aspirin (80 mesh). This was likewise removed after 60 minutes. All samples collected from the pouches were counted for radio-activity using a deep-well counter. From the amount of radio-activity present in the gastric samples, the loss of blood into the pouch was determined. The results are shown in Table 3 and show the effectiveness of orally administering Compounds 3 and 15 in preventing aspirin-induced gastric bleeding.

aspirin-induced bleeding = details: rat; for Gastric Bleeding Index / Percent Decrease In Mucosal Hemorrhage vs. Control / Total Hemoglobin Loss / Volume Gastric Secretion: aspirin 375 p.o.; for Total Hemoglobin Loss / Volume Gastric Secretion: ± S.E.
Description: The effect of glyceryl guaiacolate (Compound 8) on aspirin-induced bleeding in rats was studied using the following procedure. Female Sprague-Dawley rats, weighing 140-160 g. and fasted for 24 hrs. on wire were divided into groups of 10 animals each. All animals were anesthetized with Metofane® and a ligature placed at the pyloric-duodenal junction. Groups serving as controls received normal saline (4.0 ml/kg, i.p.). Some groups received normal saline and in addition were given aspirin (375 mg/kg, p.o.) in artificial gastric juice; the remaining groups received aspirin in the same amount and also glyceryl guaiacolate 30 min. prior to the aspirin. The aspirin was administered in artificial gastric juice (USP, […]) in a total volume of 2 ml. to each rat. Following a recovery period of 1 hr. the animals received saline, aspirin and glyceryl guaiacolate in the amounts and by the routes indicated. In most of the experiments, 90 min. following aspirin the rats were sacrificed by cervical dislocation. The stomachs were removed and gastric contents collected for further analysis. […] Hemoglobin loss produced by the aspirin was determined by the colorimetric method of Bing and Baker (J. Biol. Chem. 92: 589, 1931). The condition of the gastric mucosa was also assessed by determining the incidence and severity of damage using the scoring system described hereinabove to obtain the "Gastric Bleeding Index".
Following the procedure of Example 26, methocarbamol (Compound 3 ) was tested further in rats via intraperitoneal and intraduodenal administration.

[3] = ip, 1 h, rat, 100 mg/kg i.p., aspirin 375 mg/kg p.o., read-out: Percent Decrease in Mucosal Bleeding vs Control
[4] = ip, rat, 100 mg/kg i.p. (column head states no dose), aspirin 375 mg/kg p.o., read-out: Vol. % Decrease in Gastric Secretion
[5] = rat, 100 mg/kg i.p. (column head states no dose), aspirin 375 mg/kg p.o.
[6] = 100 mg/kg intraduodenal, P <0.05
[7] = 200 mg/kg intraduodenal, P <0.05
[8] = 400 mg/kg intraduodenal, P <0.05

COc1ccccc1OCC(O)COC(=O)N(C)C (centres unmarked) [Compound 4, N,N-dimethyl 3-(2-methoxyphenoxy)-1,2-propanediol-1-carbamate]
change in vivo at 100 mg/kg [1, 3]: -70% | change in vivo at 100 mg/kg [1, 4]: -35.2% | Gastric Bleeding Index [1, 5]: 11.7

Cc1cccc(Cl)c1OCC(C)OC(N)=O (centres unmarked) [Compound 17, 1-(6-chloro-2-methylphenoxy)-2-propylcarbamate]
change in vivo at 100 mg/kg [1, 3]: -72% | change in vivo at 100 mg/kg [1, 4]: -36.5% | Gastric Bleeding Index [1, 5]: 7.5

1-(3,5-dimethyl)-2-hydroxypropyl-4-ethyl thiosemicarbazide [Compound 19]
Vol. % Decrease in Gastric Secretion [1, 5]: -40.5% | Percent Decrease in Mucosal Bleeding vs Control ([1]; rat, 100 mg/kg i.p., aspirin 375 mg/kg p.o.): 100% | Gastric Bleeding Index [1, 5]: 0.0

CN(C)CCNC(=O)N1CCC(Oc2cccc(Cl)c2)C1 (centres unmarked) [Compound 30, 3-(3-chlorophenoxy)-N-[2-(dimethylaminoethyl)carboxamide]-1-pyrrolidine]
change in vivo at 100 mg/kg [1, 3]: -100% | change in vivo at 30 mg/kg ([1]; ip, 1 h, rat, at 30 mg/kg (footnote b), read-out: Percent Decrease in Mucosal Bleeding vs Control): -97% | change in vivo at 30 mg/kg ([1]; ip, rat, at 30 mg/kg (footnote b), read-out: Vol. % Decrease in Gastric Secretion): -32.8% | Gastric Bleeding Index ([1]; rat, at 30 mg/kg (footnote b)): 0.8

COc1ccc(Cl)cc1OCC(C)O (centres unmarked) [Compound 6, 1-(5-chloro-2-methoxyphenoxy)-2-propanol]
change in vivo at 100 mg/kg [1, 3]: -93% | change in vivo at 100 mg/kg [1, 4]: -42.2% | Gastric Bleeding Index [1, 5]: 1.7

Cc1cc(Cl)ccc1OCC(C)OC(=O)NC(C)C (centres unmarked) [Compound 18, N-isopropyl 1-(4-chloro-2-methylphenoxy)-2-propylcarbamate]
change in vivo at 100 mg/kg [1, 3]: -28% | change in vivo at 100 mg/kg [1, 4]: -29.3% | Gastric Bleeding Index [1, 5]: 19.2

Cc1ccc(Cl)cc1OCC(C)O (centres unmarked) [Compound 12, 3-(5-chloro-2-methylphenoxy)-2-propanol]
change in vivo at 100 mg/kg [1, 3]: -75% | change in vivo at 100 mg/kg [1, 4]: -35.9% | Gastric Bleeding Index [1, 5]: 5.8

Cc1c(Cl)cccc1OCC(C)O (centres unmarked) [Compound 10, 1-(3-chloro-2-methylphenoxy)-2-propanol]
change in vivo at 100 mg/kg [1, 3]: -40% | change in vivo at 100 mg/kg [1, 4]: -18.8% | Gastric Bleeding Index [1, 5]: 22.5

OCC(CO)Oc1ccccc1 [Compound 1, 2-phenoxy-1,3-propanediol]
change in vivo at 100 mg/kg [1, 3]: -15% | Gastric Bleeding Index [1, 5]: 31.7

OCC(O)COc1ccccc1 (centres unmarked) [Compound 2, 3-phenoxy-1,2-propanediol]
change in vivo at 100 mg/kg ([1]; Rattus norvegicus, ip, 1 h, read-out: Percent Decrease in Mucosal Bleeding vs Control): -14% | change in vivo at 100 mg/kg ([1]; Rattus norvegicus, ip, read-out: Vol. % Decrease in Gastric Secretion): -14.1% | Gastric Bleeding Index [1, 5]: 20.0

COc1ccccc1OCC(C)O (centres unmarked) [Compound 5, 1-(2-methoxyphenoxy)-2-propanol]
change in vivo at 100 mg/kg [1, 3]: -66% | change in vivo at 100 mg/kg [1, 4]: -42% | Gastric Bleeding Index [1, 5]: 12.5

COc1ccccc1OCC(O)COC(N)=O (centres unmarked) [Compound 3, 3-(o-methoxyphenoxy)-1,2-propanediol-1-carbamate]
change in vivo at 100 mg/kg [1, 3]: -43% | change in vivo at 100 mg/kg [1, 4]: -18.3% | Gastric Bleeding Index [1, 5]: 21.7 | % Protection ([2]; 200 mg/kg p.o.): 79% | Mucosal Blood Loss, HCl + Aspirin ([2]; 200 mg/kg p.o., ± S.E.): 6.6 ± 3.1 µL | Mucosal Blood Loss, HCl ([2]; 200 mg/kg p.o., ± S.E., without aspirin): 3.5 ± 0.7 µL | % Change from Control (mucosal blood loss) ([2]; 200 mg/kg p.o., P > .05): +88% | preventing aspirin-induced gastric bleeding (in words) ([2]; oral): effectiveness | Gastric Bleeding Index (aspirin-induced bleeding; 50 mg/kg i.p.): 34 ± 2 | Percent Decrease In Mucosal Hemorrhage vs. Control (aspirin-induced bleeding; 50 mg/kg i.p.): none | Total Hemoglobin Loss (aspirin-induced bleeding; 50 mg/kg i.p.): 22.4 ± 2.4 mg | Volume Gastric Secretion (aspirin-induced bleeding; 50 mg/kg i.p.): 6.2 ± 0.5 mL | Percent Decrease In Mucosal Hemorrhage vs. Control (aspirin-induced bleeding; 100 mg/kg i.p.): 62% | Volume Gastric Secretion (aspirin-induced bleeding; 100 mg/kg i.p.): 5.5 ± 0.3 mL | Total Hemoglobin Loss (aspirin-induced bleeding; 100 mg/kg i.p., P <0.05): 11.6 ± 3.6 mg | Gastric Bleeding Index (aspirin-induced bleeding; 100 mg/kg i.p., P <0.05): 13 ± 6 | Gastric Bleeding Index (aspirin-induced bleeding; 100 mg/kg intraduodenal): 24 ± 3 | Percent Decrease In Mucosal Hemorrhage vs. Control (aspirin-induced bleeding; 100 mg/kg intraduodenal): 27% | Total Hemoglobin Loss (aspirin-induced bleeding; [6]): 27.8 ± 0.1 mg | Volume Gastric Secretion (aspirin-induced bleeding; [6]): 5.0 ± 0.1 mL | Percent Decrease In Mucosal Hemorrhage vs. Control (aspirin-induced bleeding; 200 mg/kg i.p.): 97% | Total Hemoglobin Loss (aspirin-induced bleeding; 200 mg/kg i.p., P <0.05): 1.5 ± 0.5 mg | Volume Gastric Secretion (aspirin-induced bleeding; 200 mg/kg i.p., P <0.05): 3.7 ± 0.4 mL | Gastric Bleeding Index (aspirin-induced bleeding; 200 mg/kg i.p., P <0.05): 1 ± 1 | Percent Decrease In Mucosal Hemorrhage vs. Control (aspirin-induced bleeding; 200 mg/kg intraduodenal): 67% | Total Hemoglobin Loss (aspirin-induced bleeding; [7]): 7.0 ± 2.8 mg | Volume Gastric Secretion (aspirin-induced bleeding; [7]): 3.5 ± 0.6 mL | Gastric Bleeding Index (aspirin-induced bleeding; [7]): 11 ± 6 | Percent Decrease In Mucosal Hemorrhage vs. Control (aspirin-induced bleeding; 400 mg/kg intraduodenal): 99% | Total Hemoglobin Loss (aspirin-induced bleeding; [8]): 5.1 ± 3.6 mg | Volume Gastric Secretion (aspirin-induced bleeding; [8]): 1.3 ± 0.1 mL | Gastric Bleeding Index (aspirin-induced bleeding; [8]): 0.4 ± 1 | reducing bleeding (in words) (aspirin-induced bleeding; one part by weight methocarbamol to 3.75 parts aspirin): significantly effective

CCCCNCC(O)COc1ccccc1OC (centres unmarked) [Compound 14, 1-(n-butylamino)-3-(2-methoxyphenoxy)-2-propanol]
change in vivo at 50 mg/kg ([1]; ip, 1 h, rat, 50 mg/kg i.p., aspirin 375 mg/kg p.o., read-out: Percent Decrease in Mucosal Bleeding vs Control): -78% | change in vivo at 100 mg/kg [1, 3]: -70% | change in vivo at 100 mg/kg [1, 4]: -35.6% | Toxicity remark ([1]; rat, 100 mg/kg i.p.): Toxic | Gastric Bleeding Index [1, 5]: 5.8

Cc1ccc(Cl)cc1OCC(O)CO (centres unmarked) [Compound 11, 3-(5-chloro-2-methylphenoxy)-1,2-propanediol]
change in vivo at 100 mg/kg [1, 3]: -10% | change in vivo at 100 mg/kg [1, 4]: -29.7% | Gastric Bleeding Index [1, 5]: 20.8

COc1ccc(Cl)cc1OCC(O)COC(N)=O (centres unmarked) [Compound 13, 3-(5-chloro-2-methoxyphenoxy)-1,2-propanediol-1-carbamate]
change in vivo at 100 mg/kg [1, 3]: -100% | change in vivo at 100 mg/kg [1, 4]: -57.6% | Gastric Bleeding Index [1, 5]: 0.0

NC(=O)OCC(O)COc1ccc(Cl)cc1 (centres unmarked) [Compound 21, 3-(4-chlorophenoxy)-2-hydroxypropylcarbamate]
change in vivo at 100 mg/kg [1, 3]: -78% | change in vivo at 100 mg/kg [1, 4]: -30.5% | Gastric Bleeding Index [1, 5]: 4.2

Cc1ccc(Cl)cc1OCC(O)COC(N)=O (centres unmarked) [Compound 9, 3-(5-chloro-2-methylphenoxy)-1,2-propanediol-1-carbamate]
change in vivo at 100 mg/kg [1, 3]: -81% | change in vivo at 100 mg/kg [1, 4]: -36.6% | Gastric Bleeding Index [1, 5]: 7.2

COc1ccc(Cl)cc1OCC(O)CO (centres unmarked) [Compound 7, 3-(5-chloro-2-methoxyphenoxy)-1,2-propanediol]
change in vivo at 100 mg/kg [1, 3]: -49% | change in vivo at 100 mg/kg [1, 4]: -42% | Gastric Bleeding Index [1, 5]: 19.2

CNC(=O)N1CCC(Oc2cccc(Cl)c2)C1 (centres unmarked) [Compound 20, 3-(3-chlorophenoxy)-1-methylcarbamoyl-pyrrolidine]
change in vivo at 100 mg/kg [1, 3]: -100% | change in vivo at 100 mg/kg [1, 4]: -31% | Gastric Bleeding Index [1, 5]: 0.0

O=C1NCC(COc2ccc(Cl)cc2Cl)O1 (centres unmarked) [Compound 16, 5-(2,4-dichlorophenoxymethyl)-2-oxazolidinone]
change in vivo at 100 mg/kg [1, 3]: -100% | change in vivo at 100 mg/kg [1, 4]: -44.6% | Gastric Bleeding Index [1, 5]: 0.0
